What was measured:
Type in all cases: in vivo
Setaria faberi (SETFA) [1] = experiment: Example A pre-emergence herbicidal activity, glasshouse pot test; conditions: Rate 250 g/ha, evaluated 19 or 20 days later, read-out: Pre-Emergence Activity SETFA (100=total damage to plant; 0=no damage to plant)
Description: (§1) Seeds of a variety of test species were sown in standard soil in pots. After cultivation for one day (pre-emergence) or after 10 days cultivation (post-emergence) under controlled conditions in a glasshouse, the plants were sprayed with an aqueous spray solution derived from the formulation of the technical active ingredient in 0.6 ml acetone and 45 ml formulation solution containing 10.6% Emulsogen EL (Registry number 61791-12-6), 42.2% N-methylpyrrolidone, 42.2% dipropylene glycol monomethyl ether (Registry number 34590-94-8) and 0.2% X-77 (Registry number 11097-66-8). The test plants were then grown in a greenhouse under optimum conditions until, 14 or 15 days later for post-emergence and 19 or 20 days for pre-emergence, the test was evaluated (100=total damage to plant; 0=no damage to plant). Alopecurus myosuroides (ALOMY), Avena fatua (AVEFA), Lolium perenne (LOLPE), Setaria faberi (SETFA), Digitaria sanguinalis (DIGSA), Echinochloa crus-galli (ECHCG)

[2] = test system: Digitaria sanguinalis (DIGSA); experiment: as above; conditions: Rate 250 g/ha, evaluated 19 or 20 days later, read-out: Pre-Emergence Activity DIGSA (100=total damage to plant; 0=no damage to plant)
Description: as §1

Lolium perenne (LOLPE) [3] = experiment: as above; conditions: Rate 250 g/ha, evaluated 19 or 20 days later, read-out: Pre-Emergence Activity LOLPE (100=total damage to plant; 0=no damage to plant)
Description: as §1

[4] = test system: Echinochloa crus-galli (ECHCG); experiment: as above; conditions: Rate 250 g/ha, evaluated 19 or 20 days later, read-out: Pre-Emergence Activity ECHCG (100=total damage to plant; 0=no damage to plant)
Description: as §1

[5] = test system: Alopecurus myosuroides (ALOMY); experiment: as above; conditions: Rate 250 g/ha, evaluated 19 or 20 days later, read-out: Pre-Emergence Activity ALOMY (100=total damage to plant; 0=no damage to plant)
Description: as §1

Avena fatua (AVEFA) [6] = experiment: as above; conditions: Rate 250 g/ha, evaluated 19 or 20 days later, read-out: Pre-Emergence Activity AVEFA (100=total damage to plant; 0=no damage to plant)
Description: as §1

Setaria faberi (SETFA) [7] = experiment: Example A post-emergence herbicidal activity, glasshouse pot test; conditions: Rate 125 g/ha, evaluated 14 or 15 days later, read-out: Post-Emergence Activity SETFA (100=total damage to plant; 0=no damage to plant)
Description: as §1

[8] = test system: Digitaria sanguinalis (DIGSA); experiment: as above; conditions: Rate 125 g/ha, evaluated 14 or 15 days later, read-out: Post-Emergence Activity DIGSA (100=total damage to plant; 0=no damage to plant)
Description: as §1

Lolium perenne (LOLPE) [9] = experiment: as above; conditions: Rate 125 g/ha, evaluated 14 or 15 days later, read-out: Post-Emergence Activity LOLPE (100=total damage to plant; 0=no damage to plant)
Description: as §1

[10] = test system: Echinochloa crus-galli (ECHCG); experiment: as above; conditions: Rate 125 g/ha, evaluated 14 or 15 days later, read-out: Post-Emergence Activity ECHCG (100=total damage to plant; 0=no damage to plant)
Description: as §1

[11] = test system: Alopecurus myosuroides (ALOMY); experiment: as above; conditions: Rate 125 g/ha, evaluated 14 or 15 days later, read-out: Post-Emergence Activity ALOMY (100=total damage to plant; 0=no damage to plant)
Description: as §1

Avena fatua (AVEFA) [12] = experiment: as above; conditions: Rate 125 g/ha, evaluated 14 or 15 days later, read-out: Post-Emergence Activity AVEFA (100=total damage to plant; 0=no damage to plant)
Description: as §1

Structure (SMILES) | pest or weed control at 250 g/ha (Setaria faberi (SETFA) [1]) [%] | pest or weed control at 250 g/ha [2] [%] | pest or weed control at 250 g/ha (Lolium perenne (LOLPE) [3]) [%] | pest or weed control at 250 g/ha [4] [%] | pest or weed control at 250 g/ha [5] [%] | pest or weed control at 250 g/ha (Avena fatua (AVEFA) [6]) [%] | pest or weed control at 125 g/ha (Setaria faberi (SETFA) [7]) [%] | pest or weed control at 125 g/ha [8] [%] | pest or weed control at 125 g/ha (Lolium perenne (LOLPE) [9]) [%] | pest or weed control at 125 g/ha [10] [%] | pest or weed control at 125 g/ha [11] [%] | pest or weed control at 125 g/ha (Avena fatua (AVEFA) [12]) [%]
Cc1sc(-c2ccc(Cl)cc2)nc1C1C(=O)[C@@H]2[C@H](C1=O)[C@@]1(C)CC[C@]2(C)O1 (stereo partly drawn) [Compound T26] | 100 | 100 | 70 | 80 | 90 | 60 | 0 | 30 | 0 | 0 | 10 | 0
CCc1sc(-c2ccc(Cl)cc2)nc1C1C(=O)[C@@H]2[C@H](C1=O)[C@@]1(C)CC[C@]2(C)O1 (stereo partly drawn) [Compound T27] | 100 | 100 | 90 | 70 | 70 | 60 | 80 | 100 | 40 | 100 | 80 | 90
Cc1sc(-c2ccc(Br)cc2)nc1C1C(=O)[C@@H]2[C@H](C1=O)[C@H]1CC[C@@H]2O1 (stereo partly drawn) [Compound T28] | 100 | 100 | 100 | 100 | 100 | 100 | 80 | 100 | 50 | 100 | 70 | 70
Cc1sc(-c2ccc(Cl)nc2)nc1C1C(=O)[C@@H]2[C@H](C1=O)[C@H]1CC[C@@H]2O1 (stereo partly drawn) [Compound T30] | 70 | 60 | 40 | 80 | 10 | 30 | 40 | 70 | 20 | 70 | 0 | 10

— patent publication US8530667B2, “Herbicides” (Syngenta Limited, priority 2007, dated 2013)
